From US10202361B2, “Pyridazinones as herbicides” (E I DU PONT DE NEMOURS AND COMPANY, priority 2014, dated 2019)

Columns and labels:
Assay in all cases: Test D pre-/postemergence controlled growth environment herbicide test
Format in all cases: in vivo
Conditions in all cases: scale 0 to 100
[1] = system: buckwheat, wild (wild buckwheat, Polygonum convolvulus)
How it was run: (§1)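 Preemergence: seeds sown in silt loam soil and sprayed with test chemicals in a non-phytotoxic solvent mixture containing surfactant. Postemergence: plants grown in peat/vermiculite planting medium and sprayed at 2 to 18 cm (1- to 4-leaf stage). Visual rating versus controls after 14 to 21 d, 0 (no effect) to 100 (complete control).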

[2] = system: downy bromegrass (Bromus tectorum)
How it was run: as §1

[3] = system: barley, winter (winter barley, Hordeum vulgare)
How it was run: as §1

[4] = system: oat, wild (wild oat, Avena fatua)
How it was run: as §1

[5] = system: radish, wild (wild radish, Raphanus raphanistrum)
How it was run: as §1

[6] = system: chamomile (scentless chamomile, Matricaria inodora)
How it was run: as §1

[7] = system: windgrass (Apera spica-venti)
How it was run: as §1

[8] = system: wheat, winter (winter wheat, Triticum aestivum)
How it was run: as §1

[9] = system: field poppy (Papaver rhoeas)
How it was run: as §1

[10] = system: oilseed rape (Brassica napus)
How it was run: as §1

[11] = system: chickweed (common chickweed, Stellaria media)
How it was run: as §1

Measured: Plant response rating

Cc1cc(=O)n(-c2ccc(C(F)(F)F)cc2)nc1Cc1ccnc(C(F)(F)F)c1 [Compound 2, 5-methyl-2-[4-(trifluoromethyl)phenyl]-6-[[2-(trifluoromethyl)-4-pyridinyl]methyl]-3(2H)-pyridazinone]
45: [2]; Postemergence, 500 g ai/ha | [8]; Preemergence, 500 g ai/ha
0: [1]; Preemergence, 31 g ai/ha | [2]; Preemergence, 31 g ai/ha | [2]; Preemergence, 62 g ai/ha | [2]; Preemergence, 125 g ai/ha | [3]; Preemergence, 31 g ai/ha | [3]; Preemergence, 62 g ai/ha | [4]; Preemergence, 31 g ai/ha | [4]; Preemergence, 62 g ai/ha | [6]; Preemergence, 31 g ai/ha | [6]; Preemergence, 62 g ai/ha | [8]; Preemergence, 31 g ai/ha | [8]; Preemergence, 62 g ai/ha
90: [5]; Postemergence, 125 g ai/ha | [6]; Preemergence, 500 g ai/ha
70: [1]; Postemergence, 250 g ai/ha | [11]; Postemergence, 125 g ai/ha
20: [1]; Postemergence, 31 g ai/ha | [1]; Preemergence, 62 g ai/ha | [2]; Preemergence, 250 g ai/ha | [3]; Postemergence, 250 g ai/ha | [5]; Postemergence, 31 g ai/ha | [5]; Postemergence, 62 g ai/ha | [7]; Postemergence, 125 g ai/ha | [7]; Preemergence, 31 g ai/ha | [8]; Postemergence, 500 g ai/ha | [10]; Preemergence, 31 g ai/ha | [10]; Preemergence, 62 g ai/ha
98: [10]; Postemergence, 250 g ai/ha
75: [9]; Postemergence, 62 g ai/ha | [10]; Postemergence, 62 g ai/ha | [11]; Postemergence, 250 g ai/ha
80: [1]; Postemergence, 500 g ai/ha | [4]; Preemergence, 250 g ai/ha | [4]; Preemergence, 500 g ai/ha | [9]; Postemergence, 250 g ai/ha | [10]; Postemergence, 125 g ai/ha
100: [1]; Preemergence, 250 g ai/ha | [1]; Preemergence, 500 g ai/ha | [5]; Postemergence, 250 g ai/ha | [5]; Postemergence, 500 g ai/ha | [5]; Preemergence, 31 g ai/ha | [5]; Preemergence, 62 g ai/ha | [5]; Preemergence, 125 g ai/ha | [5]; Preemergence, 250 g ai/ha | [5]; Preemergence, 500 g ai/ha | [7]; Preemergence, 500 g ai/ha | [9]; Postemergence, 125 g ai/ha | [9]; Postemergence, 500 g ai/ha | [9]; Preemergence, 31 g ai/ha | [9]; Preemergence, 62 g ai/ha | [9]; Preemergence, 125 g ai/ha | [9]; Preemergence, 250 g ai/ha | [9]; Preemergence, 500 g ai/ha | [10]; Postemergence, 500 g ai/ha | [11]; Postemergence, 500 g ai/ha | [11]; Preemergence, 31 g ai/ha | [11]; Preemergence, 62 g ai/ha | [11]; Preemergence, 125 g ai/ha | [11]; Preemergence, 250 g ai/ha | [11]; Preemergence, 500 g ai/ha
30: [1]; Postemergence, 62 g ai/ha | [2]; Postemergence, 62 g ai/ha | [2]; Postemergence, 125 g ai/ha | [3]; Preemergence, 125 g ai/ha | [3]; Preemergence, 250 g ai/ha | [4]; Postemergence, 500 g ai/ha | [6]; Postemergence, 31 g ai/ha | [6]; Postemergence, 62 g ai/ha | [6]; Postemergence, 125 g ai/ha | [8]; Preemergence, 125 g ai/ha | [11]; Postemergence, 31 g ai/ha
60: [6]; Postemergence, 500 g ai/ha | [7]; Preemergence, 125 g ai/ha | [10]; Postemergence, 31 g ai/ha
95: [7]; Preemergence, 250 g ai/ha | [10]; Preemergence, 250 g ai/ha | [10]; Preemergence, 500 g ai/ha
10: [2]; Postemergence, 31 g ai/ha | [3]; Postemergence, 31 g ai/ha | [4]; Postemergence, 31 g ai/ha | [4]; Postemergence, 62 g ai/ha | [4]; Postemergence, 125 g ai/ha | [7]; Postemergence, 31 g ai/ha | [8]; Postemergence, 31 g ai/ha | [8]; Postemergence, 62 g ai/ha
50: [1]; Postemergence, 125 g ai/ha | [3]; Preemergence, 500 g ai/ha | [6]; Preemergence, 250 g ai/ha | [7]; Preemergence, 62 g ai/ha | [10]; Preemergence, 125 g ai/ha
40: [2]; Postemergence, 250 g ai/ha | [6]; Postemergence, 250 g ai/ha | [8]; Preemergence, 250 g ai/ha | [11]; Postemergence, 62 g ai/ha
15: [3]; Postemergence, 62 g ai/ha | [3]; Postemergence, 125 g ai/ha | [4]; Postemergence, 250 g ai/ha | [7]; Postemergence, 62 g ai/ha | [8]; Postemergence, 125 g ai/ha | [8]; Postemergence, 250 g ai/ha
25: [1]; Preemergence, 125 g ai/ha | [2]; Preemergence, 500 g ai/ha | [3]; Postemergence, 500 g ai/ha | [6]; Preemergence, 125 g ai/ha | [7]; Postemergence, 250 g ai/ha | [9]; Postemergence, 31 g ai/ha
35: [4]; Preemergence, 125 g ai/ha | [7]; Postemergence, 500 g ai/ha
